US12479849B2, “EGFR inhibitors for the treatment of cancer” (Hoffmann-La Roche Inc., priority 2019, dated 2025)
Counter-ions that a name gives are not always drawn.

What follows are molecules tested against T1, EGFR TMLRCS (Homo sapiens, UniProt P00533, C797S/L858R/T790M) (assay: HTRF Phospho EGFR TMLRCS Assay (Cellular)). Conditions: BaF3-TMLRCS cell line, 4 hours incubation, Phospho-EGFR HTRF readout.
T1 construct: host or cells: BaF3-TMLRCS (Ba/F3 cells, kept under puromycin selection)
Format: cell-based
Procedure: HTRF Phospho EGFR TMLRCS Assay (Cellular)
BaF3-TMLRCS cell line were obtained from Crownbio (San Diego, CA, USA). Cells were maintained at 37° C., 5% CO2 in RPMI ATCC (Gibco 31870)+2 mM Glutamine+0.5 μg/ml Puromycin supplemented with 10% fetal bovine serum (FBS) (Gibco).
Cells are transferred as above to Greiner Bio-One, Nr. 784-08 micro-titerplate at 20000 cells/well in 12.5 μl of growth medium/well after the plates had been pre-filled with 12.5 nl of DMSO solutions of the to be tested compounds (in dose response) or DMSO only. After spinning the plates at 300×g for 30 seconds the cells were incubated for 4 hours at 37 C, 5% CO2, 95% humidity. The cells were lysed by adding to the compound mix 4 μl/well of the supplemented lysis buffer (Cis-bio, Phospho-EGFR HTRF kit, 64EG1PEH), followed by incubation for 30 min at room temperature with shaking (400 rpm). The plates were then frozen and stored overnight at −80 C. On the next day and after thawing the plates, 4 μl of a mixture of anti-Phospho-EGFR Cryptate and of anti-Phospho-EGFR-d2 antibody solutions prepared in the supplied detection buffer was added to each well. The lidded plates were then incubated for 4 h at room temperature before reading the fluorescence emission at 616 and 665 nm using an Envision reader (Perkin Elmer). Data was analyzed in similar fashion as above using the normalized ratio of the 665 to 616 signals multiplied by 10000.

T1 sequence (P00533 25-1210 T790M/C797S/L858R): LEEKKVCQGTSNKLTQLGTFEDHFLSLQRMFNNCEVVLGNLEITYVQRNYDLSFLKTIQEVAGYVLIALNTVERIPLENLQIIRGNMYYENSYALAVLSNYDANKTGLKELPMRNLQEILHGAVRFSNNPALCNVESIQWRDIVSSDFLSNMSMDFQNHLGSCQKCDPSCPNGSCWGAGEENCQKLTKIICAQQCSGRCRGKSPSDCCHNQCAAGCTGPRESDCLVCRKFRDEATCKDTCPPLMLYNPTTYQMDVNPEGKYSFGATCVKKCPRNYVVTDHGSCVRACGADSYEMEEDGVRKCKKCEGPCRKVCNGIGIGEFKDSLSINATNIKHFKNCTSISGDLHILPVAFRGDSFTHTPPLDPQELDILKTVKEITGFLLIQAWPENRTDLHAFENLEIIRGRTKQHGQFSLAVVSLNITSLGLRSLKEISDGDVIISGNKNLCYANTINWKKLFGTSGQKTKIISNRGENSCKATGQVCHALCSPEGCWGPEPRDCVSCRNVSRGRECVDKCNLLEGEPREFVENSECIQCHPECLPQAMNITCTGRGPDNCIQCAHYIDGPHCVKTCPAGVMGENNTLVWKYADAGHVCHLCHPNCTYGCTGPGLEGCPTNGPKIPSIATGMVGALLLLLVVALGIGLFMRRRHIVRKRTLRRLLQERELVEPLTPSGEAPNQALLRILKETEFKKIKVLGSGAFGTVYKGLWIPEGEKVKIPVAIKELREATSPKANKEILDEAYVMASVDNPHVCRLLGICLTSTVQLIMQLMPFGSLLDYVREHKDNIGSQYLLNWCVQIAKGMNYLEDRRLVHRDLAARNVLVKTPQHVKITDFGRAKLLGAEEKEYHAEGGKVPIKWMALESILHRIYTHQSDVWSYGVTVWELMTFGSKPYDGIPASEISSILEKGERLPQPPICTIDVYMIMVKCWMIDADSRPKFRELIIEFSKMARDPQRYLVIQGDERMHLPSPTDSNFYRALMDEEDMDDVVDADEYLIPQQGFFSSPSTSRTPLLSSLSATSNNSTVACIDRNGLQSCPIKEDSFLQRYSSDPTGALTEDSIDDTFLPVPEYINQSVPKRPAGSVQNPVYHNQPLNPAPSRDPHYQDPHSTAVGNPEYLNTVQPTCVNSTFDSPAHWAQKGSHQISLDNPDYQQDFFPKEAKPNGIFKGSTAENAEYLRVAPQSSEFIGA

| SMILES | IC50 [nM] |
| --- | --- |
| CC(F)CN1CCC(c2ccc(-c3cc(Cl)c4cn(C(C(=O)Nc5nccs5)c5ncn6c5C[C@@H](F)C6)nc4c3Cl)cc2)CC1 (stereo partly drawn) [Example 44, 2-(4,7-Dichloro-6-(4-(1-(2-fluoropropyl)piperidin-4-yl)phenyl)-2H-indazol-2-yl)-2-((R)-6-fluoro-6,7-dihydro-5H-pyrrolo[1,2-c]imidazol-1-yl)-N-(thiazol-2-yl)acetamide] | 13 |
| CCN1CC2(CCCN(c3ccc(-c4cc(Cl)c5cn(C(C(=O)Nc6nccs6)c6ncn7c6C[C@@H](F)C7)nc5c4Cl)cc3)C2)C1 (some centres unmarked) [Example 82] | 11 |
| COCCNCCc1ccc(-c2cc(Cl)c3cn(C(C(=O)Nc4nccs4)c4ncn5c4C[C@@H](F)C5)nc3c2Cl)cc1 (mixture of isomers) [Example 101, rac-2-(4,7-Dichloro-6-(4-(24(2-methoxyethyl)amino)ethyl)phenyl)-2H-indazol-2-yl)-2-((R)-6-fluoro-6,7-dihydro-5H-pyrrolo[1,2-c]imidazol-1-yl)-N-(thiazol-2-yl)acetamide] | 10 |
| Cc1cc(-c2ccc(C3CCN(CC(C)F)CC3)cc2)c(Cl)c2nn(C(C(=O)Nc3nccs3)c3ncn4c3C[C@@H](F)C4)cc12 (mixture of isomers) [Example 131, rac-2-(7-Chloro-6-(4-(1-(2-fluoropropyl)piperidin-4-yl)phenyl)-4-methyl-2H-indazol-2-yl)-2-((R)-6-fluoro-6,7-dihydro-5H-pyrrolo[1,2-c]imidazol-1-yl)-N-(thiazol-2-yl)acetamide] | 192 |
| O=C(Nc1nccs1)C(c1ncn2c1C[C@@H](F)C2)n1cc2c(Cl)cc(-c3ccc(OCCN4CCCC4)cc3)c(Cl)c2n1 (stereo partly drawn) [Example 42, 2-(4,7-Dichloro-6-(4-(2-(pyrrolidin-1-yl)ethoxy)phenyl)-2H-indazol-2-yl)-2-((R)-6-fluoro-6,7-dihydro-5H-pyrrolo[1,2-c]imidazol-1-yl)-N-(thiazol-2-yl)acetamide] | 12 |
| CN(CCN1CC(CO)C1)c1ccc(-c2cc(Cl)c3cn(C(C(=O)Nc4nccs4)c4ncn5c4C[C@@H](F)C5)nc3c2Cl)cc1 (some centres unmarked) [Example 89] | 10 |
| CN(CCN1CC(O)C1)c1ccc(-c2cc(Cl)c3cn(C(C(=O)Nc4nccs4)c4ncn5c4C[C@@H](F)C5)nc3c2Cl)cc1 (some centres unmarked) [Example 90] | 12 |
| O=C(Nc1nccs1)C(c1ncn2c1C[C@@H](F)C2)n1cc2c(Cl)cc(-c3ccc(C4CCNCC4)cc3)c(Cl)c2n1 (mixture of isomers) [Example 30, 2-[4,7-Dichloro-6-(4-piperidin-4-ylphenyl)indazol-2-yl]-2-[rac-(6R)-6-fluoro-6,7-dihydro-5H-pyrrolo[1,2-c]imidazol-1-yl]-N-(1,3-thiazol-2-yl)acetamide hydrochloride] | 33 |
| O=C(Nc1nccs1)C(c1ncn2c1C[C@@H](F)C2)n1cc2c(Cl)cc(-c3ccc(C4CCN(C5CC5)CC4)cc3)c(Cl)c2n1 (stereo partly drawn) [Example 28, 2-(4,7-Dichloro-6-(4-(1-cyclopropylpiperidin-4-yl)phenyl)-2H-indazol-2-yl)-2-((R)-6-fluoro-6,7-dihydro-5H-pyrrolo[1,2-c]imidazol-1-yl)-N-(thiazol-2-yl)acetamide] | 17 |

Second part, the molecule after the results:

| IC50 [nM] | SMILES |
| --- | --- |
| 10 | CCN1CC[C@@H](c2ccc(-c3cc(C)c4cn(C(C(=O)Nc5nccs5)c5ncn6c5C[C@@H](F)C6)nc4c3Cl)cc2)[C@H](F)C1 (single isomer, unassigned) [Example 129] |
| 9 | CC(O)C1CCN(CCc2ccc(-c3cc(Cl)c4cn(C(C(=O)Nc5nccs5)c5ncn6c5C[C@@H](F)C6)nc4c3Cl)cc2)CC1 (mixture of isomers) [Example 60, rac-2-(4,7-Dichloro-6-(4-(2-(4-(1-hydroxyethyl)piperidin-1-yl)ethyl)phenyl)-2H-indazol-2-yl)-2-((R)-6-fluoro-6,7-dihydro-5H-pyrrolo[1,2-c]imidazol-1-yl)-N-(thiazol-2-yl)acetamide] |
| 5 | O=C(Nc1nccs1)C(c1ncn2c1C[C@@H](F)C2)n1cc2c(Cl)cc(-c3ccc(CN4CCC(CO)CC4)cc3)c(Cl)c2n1 (mixture of isomers) [Example 53, rac-2-(4,7-Dichloro-6-(4-04-(hydroxymethyl)piperidin-1-yl)methyl)phenyl)-2H-indazol-2-yl)-2-((R)-6-fluoro-6,7-dihydro-5H-pyrrolo[1,2-c]imidazol-1-yl)-N-(thiazol-2-yl)acetamide] |
| 5 | O=C(Nc1nccs1)C(c1ncn2c1C[C@@H](F)C2)n1cc2c(Cl)cc(-c3ccc(N4CCN5CCC4C5)cc3)c(Cl)c2n1 (mixture of isomers) [Example 72, rac-2-(6-(4-(1,4-Diazabicyclo[3.2.1]octan-4-yl)phenyl)-4,7-dichloro-2H-indazol-2-yl)-2-((R)-6-fluoro-6,7-dihydro-5H-pyrrolo[1,2-c]imidazol-1-yl)-N-(thiazol-2-yl)acetamide] |
| 4 | O=C(Nc1nccs1)C(c1ncn2c1C[C@@H](F)C2)n1cc2c(Cl)cc(-c3ccc(CN4CCC(F)(CO)CC4)cc3)c(Cl)c2n1 (stereo partly drawn) [Example 65, 2-(4,7-Dichloro-6-(4-((4-fluoro-4-(hydroxymethyl)piperidin-1-yl)methyl)phenyl)-2H-indazol-2-yl)-2-((R)-6-fluoro-6,7-dihydro-5H-pyrrolo[1,2-c]imidazol-1-yl)-N-(thiazol-2-yl)acetamide] |
| 8 | Cc1c(-c2ccc(N3CCOCC3)cc2)cc(Cl)c2cn(C(C(=O)Nc3nccs3)c3ncn4c3C[C@@H](F)C4)nc12 (stereo partly drawn) [Example 105, 2-(4-Chloro-7-methyl-6-(4-morpholinophenyl)-2H-indazol-2-yl)-2-((R)-6-fluoro-6,7-dihydro-5H-pyrrolo[1,2-c]imidazol-1-yl)-N-(thiazol-2-yl)acetamide] |
| 6 | O=C(Nc1nccs1)C(c1ncn2c1C[C@@H](F)C2)n1cc2c(Cl)cc(-c3ccc(N4CCOCC4)nc3)c(Cl)c2n1 (mixture of isomers) [Example 29, 2-[4,7-Dichloro-6-(6-morpholin-4-ylpyridin-3-yl)indazol-2-yl]-2-[rac-(6R)-6-fluoro-6,7-dihydro-5H-pyrrolo[1,2-c]imidazol-1-yl]-N-(1,3-thiazol-2-yl)acetamide] |
| 9 | CCN1CCC(c2ccc(-c3cc(Cl)c4cn(C(C(=O)Nc5nccs5)c5ncn6c5C[C@@H](F)C6)nc4c3)cc2)CC1 (mixture of isomers) [Example 117, rac-2-(4-Chloro-6-(4-(1-ethylpiperidin-4-yl)phenyl)-2H-indazol-2-yl)-2-((R)-6-fluoro-6,7-dihydro-5H-pyrrolo[1,2-c]imidazol-1-yl)-N-(thiazol-2-yl)acetamide] |
| 9 | CCN1CC[C@@H](c2ccc(-c3cc(C)c4cn(C(C(=O)Nc5nccs5)c5ncn6c5CCC6)nc4c3Cl)cc2)[C@H](F)C1 (single isomer, unassigned) [Example 127] |
| 4 | COCCN1CCC(c2ccc(-c3cc(Cl)c4cn(C(C(=O)Nc5nccs5)c5ncn6c5C[C@@H](F)C6)nc4c3Cl)cc2)CC1 (stereo partly drawn) [Example 45, 2-(4,7-Dichloro-6-(4-(1-(2-methoxyethyl)piperidin-4-yl)phenyl)-2H-indazol-2-yl)-2-((R)-6-fluoro-6,7-dihydro-5H-pyrrolo[1,2-c]imidazol-1-yl)-N-(thiazol-2-yl)acetamide] |
| 4 | CN1CCC(Oc2ccc(-c3cc(Cl)c4cn(C(C(=O)Nc5nccs5)c5ncn6c5C[C@@H](F)C6)nc4c3Cl)cc2)CC1 (stereo partly drawn) [Example 85, 2-(4,7-Dichloro-6-(4-((l-methylpiperidin-4-yl)oxy)phenyl)-2H-indazol-2-yl)-2-((R)-6-fluoro-6,7-dihydro-5H-pyrrolo[1,2-c]imidazol-1-yl)-N-(thiazol-2-yl)acetamide] |
